# Patent publication US20210038564A1, “METHODS FOR SCAR PREVENTION” (Northwestern University, priority 2009, published 2021)
# Tested on: hypertrophic scar formation
# Test: Hypertrophic scar model in rabbit ear, 7-mm wounds, scar elevation index
# Format: in vivo, rabbit (New Zealand White)
# From the text: Using a well-established hypertrophic scar model in rabbit ear (Brown et al. (2008) Plast. Reconstr. Surg. 121:1165-1172; Kim et al. (2003) Wound Repair Regen. 11:368-372; Kryger et al. (2007) J Am. Coll. Surg. 205:78-88; Lu et al. (2005) J Am. Coll. Surg. 201:391-397; Morris et al. (2007) Plast. Reconstr. Surg. 100:674-681; Reid et al. (2006) Wound Repair Regen. 14:138-141; Reid et al. (2007) J Plast. Reconstr. Aesthet. Surg. 60:64-72; Saulis et al. (2002) Plast. Reconstr. Surg. 110:177-183; each herein incorporated by reference in its entirety), the effects of local administration of statins (e.g., Simvastatin, Lovastatin, Prevastatin) were investigated in experiments conducted during the course of developing some embodiments of the present technology. […] The effectiveness of statin administration on inhibition of hypertrophic scar formation was assessed by histological determination of scar elevation index (FIG. 1). The scar elevation index is determined by the ratio of total wound area tissue height to the area of normal tissue below the hypertrophic scar. […]
# Whereas the dosages in terms of μMol were equivalent for all 3 statins, the μg dosage levels for Lovastatin and Prevastatin were double those used for Simvastatin. Scar Elevation Index was determined for 28 rabbits, as indicated: […]
smiles,measurement,setting,value
CC[C@H](C)C(=O)O[C@H]1C[C@@H](C)C=C2C=C[C@H](C)[C@H](CC[C@@H]3C[C@@H](O)CC(=O)O3)[C@H]21 [Lovastatin],hypertrophic scar formation,"40 μM per wound, local injection",inhibit hypertrophic scar formation
same,scar elevation index (SEI),"lowest level of drug administered (40 μM per wound), injections on days 15, 20, 25, harvest on day 35, versus vehicle",significantly lower SEI
